We go through 13 molecules from patent US5985894A, “N-substituted quinolines” (Hoechst Marion Roussel, priority 1991, dated 1999).

By pIC50 is commonly meant the negative decadic logarithm of the IC50, by convention in mol/L.

pIC50: −log10 of the molar value.

For one assay, the system named is angiotensin II. In words: Test for antagonistic activity of angiotensin II on a demedullated rat. In kind it is in vivo, Male Sprague-Dawley rats. Conditions: iv, 5 min, pressure effect of angiotensin II 0.75 micrograms/kg, compound injected (jugular vein) 5 minutes before, read-out: 50% inhibiting dose. As to the method: 3) Test for Antagonistic Activity of Angiotensin II on a Demedullated Rat
Male Sprague-Dawley rats weighing 250 to 350 g were anaesthetized by an intraperitoneal injection of sodium pentobarbital (60 mg/kg). The diastolic arterial pressure was recorded using a heparinated catheter (PE50) introduced into the left carotid of the animal, and connected to a pressure calculator (Gould, Pressure Processor) by a Gould pressure sensor. A catheter was introduced into the right jugular vein of the animal for the injection of the molecules to be studied. The animal was placed under assisted respiration and a bilateral section of the pneumogastric nerves was carried out. The rat was then demedullated. After a sufficient period of stabilization, the study of the antagonism of the compounds vis-a-vis angiotensin II (Ciba Hypertensin) was carried out in the following manner.
1--Three consecutive injections of angiotensin II (0.75 micrograms/kg) spaced out over 15 minutes allowed a reproducible and stable pressure response to be obtained.
2--While keeping a time period of 15 minutes for the administration of angiotensin II, the molecules to be studied were injected 5 minutes before angiotensin II.
The pressure effects of angiotensin II in the presence of the antagonist were expressed as a percentage of the pressure effects of angiotensin II administered on its own. The 50% inhibiting dose of the effect studied was determined. Each animal was considered as its own control and the results are in the following Table

Assay [1] in a line: Passive avoidance test (scopolamine amnesia). Type of assay: in vivo, Male mice (CD1 Charles River). Conditions: s.c., 24 hours after treatment.
The target of a further assay is T1, Angiotensin II Receptor (Rattus norvegicus, UniProt P25095).
T1 construct: A fresh membrane preparation obtained from the liver of a rat was used; from tissue; host or cells: rat liver, fresh membrane preparation
T1 sequence (P25095 1-359): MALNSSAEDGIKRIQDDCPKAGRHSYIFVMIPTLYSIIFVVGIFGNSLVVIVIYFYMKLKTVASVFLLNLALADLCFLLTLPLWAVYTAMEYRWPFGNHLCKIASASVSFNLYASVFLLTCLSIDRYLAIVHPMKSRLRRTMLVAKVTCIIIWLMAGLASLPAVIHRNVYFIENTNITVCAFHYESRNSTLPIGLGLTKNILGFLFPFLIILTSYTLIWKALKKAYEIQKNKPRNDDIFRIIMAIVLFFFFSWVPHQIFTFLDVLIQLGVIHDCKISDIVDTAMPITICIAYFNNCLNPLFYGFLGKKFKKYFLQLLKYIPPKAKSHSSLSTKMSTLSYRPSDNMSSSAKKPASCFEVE
Briefly: Test on the Angiotensin II Receptor (displacement of 125I angiotensin II, rat liver membranes). Conditions: pH 7.4, 25° C., 150 minutes. In kind it is binding. The procedure: 1) Test on the Angiotensin II Receptor
A fresh membrane preparation obtained from the liver of a rat was used and the tissue was ground up in a polytron in a Tris 50 mM pH 7.4 buffer. After being ground up, the tissue was centrifuged 3 times at 30,000 g for 15 minutes with intermediate taking up of the deposits in the Tris pH 7.4 buffer. The last deposits were suspended in a pH 7.4 incubation buffer (Tris 20 mM, NaCl 135 mM, KCl 10 mM, glucose 5 mM, MgCl2 10 mM, phenyl methyl sulfonyl fluoride 0.3 mM, bacitracine 0.1 mM (0.2% bovine albumin serum). 2 ml aliquoted fractions were divided into hemolysis tubes and ^125 I angiotensin II (25,000 DPM/tube) and the product to be studied were added. The product has first tested at 3×10^-5 M in triplicate. When the test product displaced more than 50% of the radioactivity linked specifically to the receptor, it was tested again according to a range of 7 concentrations to determine the concentration that inhibited the radioactivity linked specifically to the receptor by 50%. In this way, the 50% inhibiting concentration was determined.
The non-specific bond was determined by the addition of the product of Example 94 of the European Patent No. 0,253,310 at 10^-5 M (in triplicate). The deposit was incubated at 25° C. for 150 minutes, put back in a water bath at 0° C. for 5 minutes, filtered under vacuum, rinsed with Tris pH 7.4 buffer and the radioactivity was counted in the presence of scintillating Triton. The results were expressed directly as a 50% inhibiting concentration (IC50), that is to say as a concentration of product studied, expressed in nM, necessary to displace 50% of the specific radioactivity fixed on the receptor studied.

Assay [2] concerns angiotensin II on the isolated portal vein. Briefly: Antagonistic activity of angiotensin II on the isolated portal vein. Conditions: isolated rat portal vein, angiotensin II 3.10^-8 M, compound 15 minutes before; read-out: IC50 (50% inhibition of the response to angiotensin). Type of assay: cell-based, male Wistar rats. As to the method:
The portal vein was removed from male Wistar rats weighing about 350 g (IFFA Credo France) after cervical dislocation, and put rapidly into a physiological solution (see below) at ambient temperature. A ring of about 1 mm was mounted in a bath with an isolated element containing 20 ml of the following physiological solution (composition in mM: NaCl 118.3-KCl 4.7-MgSO4 1.2-KH2 PO4 1.2-NaHCO3 25-glucose 11.1-CaCl2 2.5). The medium was maintained at 37° C. and oxygenated with a mixture of O2 95%, CO2 5%. The initial pressure imposed was 1 g and the rings were left at rest for 60 to 90 minutes. To avoid spontaneous contractions, verapamil was added to the incubation bath (1.10^-6 M). At the end of the rest period, angiotensin II (Ciba hypertensis) 3.10^-8 M were added to the incubation bath and left in contact with the preparation for one minute. This operation was repeated every 30 minutes with the tissue being washed 3 or 4 times between two stimulations with angiotensin. The compound to be studied was introduced into the bath 15 minutes before a new stimulation with angiotensin. As increasing concentrations of the molecule were used, an IC50 (concentration that produced a 50% inhibition of the response to angiotensin) was calculated, expressed in nanomoles.

On to `CCCCc1cn(Cc2ccc(-c3ccccc3C(=O)O)cc2)c2cc(CC(=O)O)ccc2c1=O` [Example 50], for which, in the assay with angiotensin II, the ED50 came to 0.61 mg/kg. For the same molecule, the “PERCENTAGE OF INCREASE IN THE LATENCY TIME RELATIVE TO THE CONTROLS” value is reported as 20% in assay [1] (dose 0.1 μg/kg); 31% in assay [1] (dose 0.25 μg/kg); 84% in assay [1] (dose 1 μg/kg); 93% in assay [1] (dose 2.5 μg/kg); 190% in assay [1] (dose 10 μg/kg); 225% in assay [1] (dose 25 μg/kg). In assay [1] (dose 100 μg/kg), the “PERCENTAGE OF INCREASE IN THE LATENCY TIME RELATIVE TO THE CONTROLS” value was found to be 149%.
With `CCCCc1cn(Cc2ccc(-c3ccccc3C(=O)O)cc2)c2c(C(=O)O)cccc2c1=O` [Example 30], in the assay with angiotensin II, the ED50 stood at 0.21 mg/kg. The “PERCENTAGE OF INCREASE IN THE LATENCY TIME RELATIVE TO THE CONTROLS” value is given as 23% in assay [1] (dose 1 μg/kg); 37% in assay [1] (dose 10 μg/kg); 65% in assay [1] (dose 25 μg/kg); 91% in assay [1] (dose 100 μg/kg); 144% in assay [1] (dose 250 μg/kg); 126% in assay [1] (dose 1000 μg/kg). Moreover, the pIC50 on Angiotensin II Receptor was 7.27.
Consider `CCCCc1cn(Cc2ccc(-c3ccccc3C(=O)O)cc2)c2ccccc2c1=S` [Example 6], for which the ED50 with angiotensin II came out at 6.65 mg/kg. The pIC50 was 7.18 in assay [2] and 6.40 at Angiotensin II Receptor.
As for `CCCCc1cn(Cc2ccc(-c3ccccc3-c3nn[nH]n3)cc2)c2cc(C(=O)N3CCCC3)ccc2c1=O` [Example 52], the ED50 in the assay with angiotensin II was determined as 0.23 mg/kg. This molecule had a pIC50 at Angiotensin II Receptor of 8.06.
In the case of `CCCCc1cn(Cc2ccc(-c3ccccc3C(=O)O)cc2)c2c(Br)cccc2c1=O` [Example 18, 4'-[(3-butyl-1,4-dihydro-8-bromo-4-oxo-1-quinolinyl)-methyl](1,1'-biphenyl)2-carboxylic acid], in the assay on angiotensin II, the ED50 was 3.9 mg/kg. Further, the pIC50 at Angiotensin II Receptor was 7.13.
Turning to `CCCCc1cn(Cc2ccc(-c3ccccc3C(=O)O)cc2)c2ccc(C)cc2c1=O` [Example 58], the “PERCENTAGE OF INCREASE IN THE LATENCY TIME RELATIVE TO THE CONTROLS” value is reported as 3% in assay [1] (dose 0.1 μg/kg); 29% in assay [1] (dose 1 μg/kg); 112% in assay [1] (dose 10 μg/kg); 110% in assay [1] (dose 25 μg/kg); 129% in assay [1] (dose 100 μg/kg).
`CCCCc1cn(Cc2ccc(-c3ccccc3C(=O)O)cc2)c2cc(CO)ccc2c1=O` [Example 12]: the ED50 in the assay on angiotensin II came to 3.76 mg/kg. The pIC50 in assay [2] was 7.31.
With `CCCCc1cn(Cc2ccccc2CC(=O)O)c2ccccc2c1=O` [Example 56], the “PERCENTAGE OF INCREASE IN THE LATENCY TIME RELATIVE TO THE CONTROLS” value was 24% in assay [1] (dose 10 μg/kg); 49% in assay [1] (dose 25 μg/kg); 98% in assay [1] (dose 100 μg/kg); 105% in assay [1] (dose 250 μg/kg); 122% in assay [1] (dose 1000 μg/kg).
For `CCCCc1cn(Cc2ccc(-c3ccccc3C(=O)O)cc2)c2c(c1=O)CCCC2` [Example 22, 4'-[(3-butyl-1,4,5,6,7,8-hexahydro-4-oxo-1-quinolinyl)-methyl](1,1'-biphenyl)-2-carboxylic acid], the ED50 in the assay on angiotensin II turned out to be 1 mg/kg. Also, the “PERCENTAGE OF INCREASE IN THE LATENCY TIME RELATIVE TO THE CONTROLS” value in assay [1] (dose 10 μg/kg) turned out to be 8%; in assay [1] (dose 25 μg/kg), 26%; in assay [1] (dose 100 μg/kg), 66%; in assay [1] (dose 250 μg/kg), 128%; in assay [1] (dose 1000 μg/kg), 127%. For the same molecule, the pIC50 at Angiotensin II Receptor is 7.05.
Regarding `CCCCc1cn(Cc2ccc(-c3ccccc3C(=O)O)cc2)c2cc(CCC(=O)O)ccc2c1=O` [Example 38], the “PERCENTAGE OF INCREASE IN THE LATENCY TIME RELATIVE TO THE CONTROLS” value in assay [1] (dose 0.1 μg/kg) is 1%; in assay [1] (dose 1 μg/kg), 57%; in assay [1] (dose 10 μg/kg), 118%; in assay [1] (dose 25 μg/kg) it was 132%; in assay [1] (dose 100 μg/kg) it was 131%; in assay [1] (dose 250 μg/kg), 101%. Besides, in assay [1] (dose 1000 μg/kg), the “PERCENTAGE OF INCREASE IN THE LATENCY TIME RELATIVE TO THE CONTROLS” value is 158%.
`CCCCc1cn(Cc2ccc(-c3ccccc3C(=O)O)cc2)c2cc(C(=O)N3CCCC3)ccc2c1=O` [Example 16]: the ED50 in the assay with angiotensin II came out at 1.2 mg/kg. Also, the pIC50 in assay [2] was 7.50; at Angiotensin II Receptor it was 7.10.
As for `CCCCc1cn(Cc2ccc(-c3ccccc3C(=O)O)cc2)c2cc(C(=O)O)ccc2c1=O` [Example 10, 3-butyl-1-[[2'-carboxy-(1,1'-biphenyl)-4-yl]-methyl]-1,4-dihydro-4-oxo-7-quinoline carboxylic acid], the ED50 with angiotensin II was 1.27 mg/kg. Also, the figures for the pIC50 (in assay [2]; at Angiotensin II Receptor) were 7.51 and 7.04, respectively.
Turning to `CCCCc1cn(Cc2ccc(-c3ccccc3C(=O)O)cc2)c2ccccc2c1=O` [Example 4, 4'-[(3-butyl-1,4-dihydro-4-oxo-1-quinolinyl)-methyl](1,1'-biphenyl)-2-carboxylic acid], the ED50 with angiotensin II is 7.55 mg/kg. Moreover, the values for the pIC50 (in assay [2]; on Angiotensin II Receptor) were 7.02 and 6.74, respectively.
